Experimental data published in ChEMBL document CHEMBL5338788, “Discovery of a New-Generation S-Adenosylmethionine-Noncompetitive Covalent Inhibitor Targeting the Lysine Methyltransferase Enhancer of Zeste Homologue 2” (J Med Chem, 2023).
Active and inactive are the calls of the source. No cut-off for these calls is given here.

Columns and labels:
[1] = molecular target: Histone-lysine N-methyltransferase EZH2 (Homo sapiens, UniProt Q15910, Y641F); experiment: Inhibition of N-terminal FLAG-tagged recombinant full-length human EZH2 Y641F mutant in PRC2 complex expressed in baculovirus infected Sf9 cells using H3K27me0 biotin/SAM as substrate preincubated for 10 mins followed by substrate addition measured after 4 hrs by HTRF assay; format: cell-based
KARPAS-422 [2] = experiment: Antiproliferative activity against human KARPAS-422 cells expressing EZH2 Y641N mutant assessed as inhibition of cell proliferation incubated for 6 days by CCK8 assay; format: functional, cell-based; conditions: KARPAS-422, 144 h
[3] = Metabolic stability in human liver microsomes assessed as half life preincubated for 10 mins followed by NADPH addition measured upto 60 mins by LC-MS/MS analysis; format: ADME, Microsome; conditions: time < 70 min
[4] = Apparent permeability in human Caco-2 cells at 20 uM measured for 35 to 95 mins by LC-MS/MS analysis; format: ADME, cell-based; conditions: time 35-95 min
Pfeiffer [5] = experiment: Antiproliferative activity against human Pfeiffer cells expressing EZH2 […] mutant assessed as inhibition of cell proliferation incubated for 6 days by CCK8 assay; format: functional, cell-based; conditions: 144 h
KARPAS-422 [6] = experiment: Antiproliferative activity against human KARPAS-422 cells expressing EZH2 mutant assessed as inhibition of cell proliferation incubated for 6 days by CCK8 assay; format: functional, cell-based; conditions: time 6.0 day
Karpas-1106P = experiment: Antiproliferative activity against human KARPAS-1106P cells expressing wild-type EZH2 assessed as inhibition of cell proliferation incubated for 6 days by CCK8 assay; format: functional, cell-based
SU-DHL-2 = experiment: Antiproliferative activity against human SUDHL2 cells expressing EZH2 mutant assessed as inhibition of cell proliferation incubated for 6 days by CCK8 assay; format: functional, cell-based; conditions: SU-DHL-2, 144 h
RL = experiment: Antiproliferative activity against human RL cells expressing EZH2 mutant assessed as inhibition of cell proliferation incubated for 6 days by CCK8 assay; format: functional, cell-based
Pfeiffer [7] = experiment: Downregulation of H3K27me3 level in human Pfeiffer cells at 1 uM incubated for 96 hrs followed by compound washout measured after 48 hrs by Western blot analysis; format: functional, cell-based; conditions: time 144.0 hrs
[8] = Antiproliferative activity against human WILL-1 cells expressing wild-type EZH2 assessed as inhibition of cell proliferation incubated for 6 days by CCK8 assay; format: functional, cell-based; conditions: WILL-1, 144 h
OPM-2 = experiment: Antiproliferative activity against human OPM-2 cells expressing wild-type EZH2 assessed as inhibition of cell proliferation incubated for 6 days by CCK8 assay; format: functional, cell-based; conditions: OPM-2, 144 h
HT = experiment: Antiproliferative activity against human HT cells expressing wild-type EZH2 assessed as inhibition of cell proliferation incubated for 6 days by CCK8 assay; format: functional, cell-based; conditions: 144 h
DB = experiment: Antiproliferative activity against human DB cells expressing wild-type EZH2 assessed as inhibition of cell proliferation incubated for 6 days by CCK8 assay; format: functional, cell-based; conditions: 144 h
WSUDLCL2 = experiment: Antiproliferative activity against human WSUDLCL2 cells expressing wild-type EZH2 assessed as inhibition of cell proliferation incubated for 6 days by CCK8 assay; format: functional, cell-based; conditions: WSUDLCL2, 144 h
Pfeiffer [9] = experiment: Antiproliferative activity against human Pfeiffer cells expressing EZH2 mutant assessed as inhibition of cell proliferation incubated for 6 days by CCK8 assay; format: functional, cell-based; conditions: time 6.0 day
SU-DHL10 = experiment: Antiproliferative activity against human SU-DHL-10 cells expressing EZH2 mutant assessed as inhibition of cell proliferation incubated for 6 days by CCK8 assay; format: functional, cell-based; conditions: time 6.0 day
U2932 = experiment: Antiproliferative activity against human U2932 cells expressing wild-type EZH2 assessed as inhibition of cell proliferation incubated for 6 days by CCK8 assay; format: functional, cell-based; conditions: U2932, 144 h

Chain of Histone-lysine N-methyltransferase EZH2 (Q15910 whole entry Y641F): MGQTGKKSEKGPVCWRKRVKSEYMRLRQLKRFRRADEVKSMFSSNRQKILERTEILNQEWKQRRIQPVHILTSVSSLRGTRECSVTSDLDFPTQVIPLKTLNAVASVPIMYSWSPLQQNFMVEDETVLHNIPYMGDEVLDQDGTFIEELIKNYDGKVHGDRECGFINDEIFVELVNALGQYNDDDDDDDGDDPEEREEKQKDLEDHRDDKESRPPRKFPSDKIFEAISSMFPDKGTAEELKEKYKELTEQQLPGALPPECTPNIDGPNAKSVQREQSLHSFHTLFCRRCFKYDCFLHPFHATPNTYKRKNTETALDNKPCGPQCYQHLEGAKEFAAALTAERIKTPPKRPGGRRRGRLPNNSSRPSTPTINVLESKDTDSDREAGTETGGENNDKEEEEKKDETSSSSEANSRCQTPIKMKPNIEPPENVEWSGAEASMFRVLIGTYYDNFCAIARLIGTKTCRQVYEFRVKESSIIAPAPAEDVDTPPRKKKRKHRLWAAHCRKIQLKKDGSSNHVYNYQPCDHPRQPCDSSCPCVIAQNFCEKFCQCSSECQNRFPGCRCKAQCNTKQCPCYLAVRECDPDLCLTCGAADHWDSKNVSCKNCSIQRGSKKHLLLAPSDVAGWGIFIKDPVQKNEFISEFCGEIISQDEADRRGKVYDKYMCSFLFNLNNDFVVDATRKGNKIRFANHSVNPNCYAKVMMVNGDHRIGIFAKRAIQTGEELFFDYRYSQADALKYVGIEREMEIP

SMILES	IC50 [1]	IC50 (KARPAS-422 [2])	IC50 (Pfeiffer [5])	other results
CC#CC(=O)Nc1cc(C(=O)NCc2c(C)cc(C)[nH]c2=O)c(C)c(N(CC)C2CCOCC2)c1	11 nM	–	–	–
C=CC(=O)N(C)c1cc(C(=O)NCc2c(C)cc(C)[nH]c2=O)c(C)c(N(CC)C2CCOCC2)c1	35 nM	587 nM	195 nM	half-life [3]: 12.7 min; Papp at 20 µM [4]: 0.054 ×10⁻⁶ cm/s
CCC(=O)NCc1cc(C(=O)NCc2c(C)cc(C)[nH]c2=O)c(C)c(N(CC)C2CCOCC2)c1	137 nM	> 3000 nM	> 3000 nM	–
CCC(=O)Nc1cc(C(=O)NCc2c(C)cc(C)[nH]c2=O)c(C)c(N(CC)C2CCOCC2)c1	38 nM	> 3000 nM	1950 nM	–
C/C=C/C(=O)Nc1cc(C(=O)NCc2c(C)cc(C)[nH]c2=O)c(C)c(N(CC)C2CCOCC2)c1	21 nM	–	–	–
C=CC(=O)NCc1cc(C(=O)NCc2c(OC)cc(C)[nH]c2=O)c(C)c(N(CC)C2CCOCC2)c1	9 nM	1440 nM	314 nM	half-life [3]: 35.3 min
C=CC(=O)NCc1cc(C(=O)NCc2c(CCC)cc(C)[nH]c2=O)c(C)c(N(CC)C2CCOCC2)c1	4 nM	> 3000 nM	1350 nM	–
C=CC(=O)Nc1cc(C(=O)NCc2c(C)cc(C)[nH]c2=O)c(C)c(N(CC)C2CCOCC2)c1	10 nM	> 3000 nM	974 nM	half-life [3]: 9.4 min; Papp at 20 µM [4]: 0.045 ×10⁻⁶ cm/s
CCC(=O)NCc1cc(C(=O)NCc2c(SC)cc(C)[nH]c2=O)c(C)c(N(CC)C2CCOCC2)c1	134 nM	708 nM	147 nM	inhibition (KARPAS-422 [6]): Active; IC50 (Karpas-1106P; 144 h): > 3000 nM; IC50 (SU-DHL-2): > 3000 nM; IC50 (RL; 144 h): > 3000 nM; Activity (Pfeiffer [7]): inactive; IC50 [8]: > 3000 nM; IC50 (OPM-2): > 3000 nM; IC50 (HT): > 3000 nM; IC50 (DB): > 3000 nM; IC50 (WSUDLCL2): > 3000 nM; inhibition (Pfeiffer [9]): Active; inhibition (SU-DHL10): Active; IC50 (U2932): > 3000 nM
CCN(c1cc(NC(=O)/C=C/CN2CCOCC2)cc(C(=O)NCc2c(C)cc(C)[nH]c2=O)c1C)C1CCOCC1	21 nM	–	–	–
C=C(C)C(=O)Nc1cc(C(=O)NCc2c(C)cc(C)[nH]c2=O)c(C)c(N(CC)C2CCOCC2)c1	38 nM	–	–	–
CCN(c1cc(NC(=O)/C=C/CN(C)C)cc(C(=O)NCc2c(C)cc(C)[nH]c2=O)c1C)C1CCOCC1	36 nM	–	–	–
CCC(=O)N(C)c1cc(C(=O)NCc2c(C)cc(C)[nH]c2=O)c(C)c(N(CC)C2CCOCC2)c1	50 nM	> 3000 nM	2530 nM	–
C=CS(=O)(=O)Nc1cc(C(=O)NCc2c(C)cc(C)[nH]c2=O)c(C)c(N(CC)C2CCOCC2)c1	173 nM	–	–	–
CCN(c1cc(-c2ccc(CN3CCOCC3)cc2)cc(C(=O)NCc2c(C)cc(C)[nH]c2=O)c1C)C1CCOCC1 [TAZEMETOSTAT]	–	294 nM	34 nM	inhibition (KARPAS-422 [6]): Active; inhibition (Karpas-1106P; time 6.0 day): Active; IC50 (SU-DHL-2): > 3000 nM; inhibition (RL; time 6.0 day): Active; Activity (Pfeiffer [7]): inactive; IC50 [8]: > 3000 nM; IC50 (OPM-2): > 3000 nM; IC50 (HT): > 3000 nM; IC50 (DB): > 3000 nM; IC50 (WSUDLCL2): > 3000 nM; half-life [3]: 20.2 min; inhibition (Pfeiffer [9]): Active; Papp at 20 µM [4]: 1.06 ×10⁻⁶ cm/s; inhibition (SU-DHL10): Active; IC50 (U2932): > 3000 nM
CC[C@H](C)n1cc(C)c2c(C(=O)NCc3c(C)cc(C)[nH]c3=O)cc(-c3ccc(N4CCNCC4)nc3)cc21	–	–	–	Activity (Pfeiffer [7]): inactive
C=CC(=O)NCc1cc(C(=O)NCc2c(C)cc(C)[nH]c2=O)c(C)c(N(CC)C2CCOCC2)c1	39 nM	542 nM	194 nM	half-life [3]: 24 min
